Experimental data from PMC11597725, “New Asymmetric Gemini Triazole Surfactants with a Polar Triethylene Glycol Fragment: Synthesis and Physico-Chemical Properties” (Molecules, 2024).

Target: T1, bovine serum albumin (BSA) (Bos taurus, UniProt P02769)
T1 construct: gene ALB; native serum protein, BSA powder dissolved in buffer; mature form expected
Assay: tryptophan fluorescence quenching, double-log plot
Type: binding
Details: 25 mM Tris-HCl pH 7.4, 298.15 K, BSA 10 μM, surfactant 0-700 μM
Source text: tryptophan fluorescence quenching, double-log plot on bovine serum albumin (BSA)

T1 sequence (P02769 25-607): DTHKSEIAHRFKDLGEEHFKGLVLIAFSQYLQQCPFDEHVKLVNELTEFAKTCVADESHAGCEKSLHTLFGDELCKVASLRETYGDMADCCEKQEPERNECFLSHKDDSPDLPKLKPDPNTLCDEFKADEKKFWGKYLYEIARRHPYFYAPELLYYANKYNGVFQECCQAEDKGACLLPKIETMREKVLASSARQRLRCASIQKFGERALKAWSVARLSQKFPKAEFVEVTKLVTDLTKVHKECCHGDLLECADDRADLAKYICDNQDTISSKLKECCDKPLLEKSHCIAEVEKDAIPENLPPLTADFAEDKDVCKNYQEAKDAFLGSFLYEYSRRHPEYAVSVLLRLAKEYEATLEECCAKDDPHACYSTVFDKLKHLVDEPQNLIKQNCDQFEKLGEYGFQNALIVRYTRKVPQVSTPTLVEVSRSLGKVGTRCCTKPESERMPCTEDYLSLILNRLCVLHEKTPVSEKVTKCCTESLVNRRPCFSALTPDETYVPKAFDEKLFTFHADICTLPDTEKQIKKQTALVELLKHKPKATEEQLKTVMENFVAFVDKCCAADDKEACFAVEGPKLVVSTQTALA

Compound	Kb
CCCCn1cc[n+](CCCn2cc[n+](CCCn3cc(COCCOCCOCCOC)nn3)c2)c1 [14a, 1-(3-(4-(2,5,8,11-tetraoxadodecyl)-1H-1,2,3-triazol-1-yl)propyl)-3-(3-(1-butyl-1H-imidazol-3-ium-3-yl)propyl)-1H-imidazol-3-ium dibromide]	730 M⁻¹
CCCCCCCCn1cc[n+](CCCn2cc[n+](CCCn3cc(COCCOCCOCCOC)nn3)c2)c1 [14b, 1-(3-(4-(2,5,8,11-tetraoxadodecyl)-1H-1,2,3-triazol-1-yl)propyl)-3-(3-(1-octyl-1H-imidazol-3-ium-3-yl)propyl)-1H-imidazol-3-ium dibromide]	20700 M⁻¹
CCCCCCCCCCCCCCn1cc[n+](CCC[n+]2ccn(CCCn3cc(COCCOCCOCCOC)nn3)c2)c1 [14c, 1-(3-(4-(2,5,8,11-tetraoxadodecyl)-1H-1,2,3-triazol-1-yl)propyl)-3-(3-(1-tetradecyl-1H-imidazol-3-ium-3-yl)propyl)-1H-imidazol-3-ium dibromide]	44900 M⁻¹
COCCOCCOCCOCc1cn(CCCn2cc[n+](CCC[n+]3ccn(CCCn4cc(COCCOCCOCCOC)nn4)c3)c2)nn1 [14d, 3,3′-(propane-1,3-diyl)bis(1-(3-(4-(2,5,8,11-tetraoxadodecyl)-1H-1,2,3-triazol-1-yl)propyl)-1H-imidazol-3-ium) dibromide]	34800 M⁻¹
CCCCn1cc[n+](CCC[n+]2ccn(CCOCCn3cc(COCCOCCOCCOC)nn3)c2)c1 [15a, 1-(2-(2-(4-(2,5,8,11-tetraoxadodecyl)-1H-1,2,3-triazol-1-yl)ethoxy)ethyl)-3-(3-(1-butyl-1H-imidazol-3-ium-3-yl)propyl)-1H-imidazol-3-ium dibromide]	790 M⁻¹
CCCCCCCCn1cc[n+](CCC[n+]2ccn(CCOCCn3cc(COCCOCCOCCOC)nn3)c2)c1 [15b, 1-(2-(2-(4-(2,5,8,11-tetraoxadodecyl)-1H-1,2,3-triazol-1-yl)ethoxy)ethyl)-3-(3-(1-octyl-1H-imidazol-3-ium-3-yl)propyl)-1H-imidazol-3-ium dibromide]	10400 M⁻¹
CCCCCCCCCCCCCCn1cc[n+](CCC[n+]2ccn(CCOCCn3cc(COCCOCCOCCOC)nn3)c2)c1 [15c, 1-(2-(2-(4-(2,5,8,11-tetraoxadodecyl)-1H-1,2,3-triazol-1-yl)ethoxy)ethyl)-3-(3-(1-tetradecyl-1H-imidazol-3-ium-3-yl)propyl)-1H-imidazol-3-ium dibromide]	10900 M⁻¹
COCCOCCOCCOCc1cn(CCOCCn2cc[n+](CCC[n+]3ccn(CCOCCn4cc(COCCOCCOCCOC)nn4)c3)c2)nn1 [15d, 3,3′-(propane-1,3-diyl)bis(1-(2-(2-(4-(2,5,8,11-tetraoxadodecyl)-1H-1,2,3-triazol-1-yl)ethoxy)ethyl)-1H-imidazol-3-ium) dibromide]	10000 M⁻¹
